The source of these data is ChEMBL document CHEMBL1134255, “Synthesis and evaluation of efavirenz (Sustiva) analogues as HIV-1 reverse transcriptase inhibitors: replacement of the cyclopropylacetylene side chain” (2001).

Molecules are shown by their SMILES.

Experiment [1] concerns Human immunodeficiency virus 1. The experiment is described as follows: Antiviral activity was evaluated against wild-type HIV-1 virus. The experiment is classed as functional.
In experiment [2] the test system is Human immunodeficiency virus type 1 reverse transcriptase (Human immunodeficiency virus 1), Q72547 [K103N].

In experiment [1], `O=C1Nc2ccc(F)cc2C(OCC=C(Cl)Cl)(C(F)(F)F)O1` (stereo not drawn) came in with an IC90 of 11.9 nM.
Take `O=C1Nc2ccc(F)c(F)c2C(C#Cc2cccnc2)(C(F)(F)F)O1` (stereo not drawn): the IC90 in experiment [1] stood at 2.23 nM; in experiment [2] it was 59.3 nM.
On to `O=C1Nc2ccc(F)cc2C(C#Cc2cccnc2)(C(F)(F)F)O1` (stereo not drawn), for which the concentration for an effect of 90% (IC90) turned out to be 2.56 nM in experiment [1] and 329 nM in experiment [2].
For `O=C1Nc2ccc(Cl)cc2C(OCC=C(Cl)Cl)(C(F)(F)F)O1` (stereo not drawn), the IC90 in experiment [1] was determined as 9.5 nM; in experiment [2], 242 nM.
On to `C/C=C\COC1(C(F)(F)F)OC(=O)Nc2ccc(Cl)cc21` (stereo not drawn), for which the IC90 was found to be 4.35 nM in experiment [1] and 237 nM in experiment [2].
In experiment [1], `O=C1Nc2ccc(Cl)cc2C(C#Cc2cncs2)(C(F)(F)F)O1` (stereo not drawn) registered an IC90 of 6.69 nM.
With `O=C1Nc2ccc(Cl)cc2C(OCCC2CC2)(C(F)(F)F)O1` (stereo not drawn), the 90% effect level in experiment [1] (IC90) was put at 8.04 nM.
Consider `O=C1Nc2ccc(Cl)cc2C(C#Cc2cccnc2)(C(F)(F)F)O1` (stereo not drawn), for which the IC90 in experiment [1] was 3.97 nM; in experiment [2], 145 nM.
Turning to `CC(C)=CCOC1(C(F)(F)F)OC(=O)Nc2ccc(F)cc21` (stereo not drawn), the figures for the 90% effect concentration (IC90) in experiment [1] and in experiment [2] were 2.98 nM and 107 nM, respectively.
The molecule `O=C1Nc2ccc(F)c(F)c2C(C#Cc2ccco2)(C(F)(F)F)O1` (stereo not drawn) yielded an IC90 in experiment [1] of 3.79 nM.
On to `COCCOC1(C(F)(F)F)OC(=O)Nc2ccc(Cl)cc21` (stereo not drawn), for which the 90% effect level in experiment [1] (IC90) was put at 61.4 nM.
Take `O=C1Nc2ccc(F)c(F)c2C(C#Cc2ccoc2)(C(F)(F)F)O1` (stereo not drawn): the IC90 in experiment [1] is 3.21 nM; in experiment [2] it was 280 nM.
Take `C=CCOC1(C(F)(F)F)OC(=O)Nc2ccc(Cl)cc21` (stereo not drawn): the IC90 in experiment [1] was 3.9 nM.
The same measure, in the same setting: as for `C=CCCOC1(C(F)(F)F)OC(=O)Nc2ccc(Cl)cc21` (stereo not drawn), the figure is 13.7 nM.
Consider `C/C=C/COC1(C(F)(F)F)OC(=O)Nc2ccc(F)cc21` (stereo not drawn), for which the IC90 in experiment [1] is 8.85 nM; in experiment [2], 1150 nM.
Molecule `CCCOC1(C(F)(F)F)OC(=O)Nc2ccc(Cl)cc21` (stereo not drawn) returned an IC90 in experiment [1] of 5.81 nM.
Take `O=C1Nc2ccc(Cl)cc2C(OCC(F)(F)C(F)(F)F)(C(F)(F)F)O1` (stereo not drawn): the IC90 in experiment [1] was 651 nM.
As for `O=C1Nc2ccc(F)c(F)c2C(OCC=C(Cl)Cl)(C(F)(F)F)O1` (stereo not drawn), the 90% effect concentration (IC90) stood at 6.35 nM in experiment [1] and 183 nM in experiment [2].
In experiment [1], `CCOC1(C(F)(F)F)OC(=O)Nc2ccc(Cl)cc21` (stereo not drawn) displayed an IC90 of 18.3 nM.
`O=C1Nc2ccc(Cl)cc2C(C#Cc2ccccn2)(C(F)(F)F)O1` (stereo not drawn): the results for the IC90 in experiment [1] and in experiment [2] were 5.39 nM and 1110 nM, respectively.
In turn, `O=C1Nc2ccc(Cl)cc2C(OCC2CC2)(C(F)(F)F)O1` (stereo not drawn) came in with an IC90 in experiment [1] of 7.7 nM.
The molecule `N#CCCOC1(C(F)(F)F)OC(=O)Nc2ccc(Cl)cc21` (stereo not drawn) showed an IC90 in experiment [1] greater than 1500 nM.
Turning to `O=C1Nc2ccc(Cl)cc2C(C#Cc2ccco2)(C(F)(F)F)O1` (stereo not drawn), the IC90 amounted to 3.8 nM in experiment [1] and 152 nM in experiment [2].
In experiment [1], `O=C1Nc2ccc(Cl)cc2C(OCc2cccnc2)(C(F)(F)F)O1` (stereo not drawn) showed an IC90 of 75.3 nM.
In turn, `O=C1Nc2ccc(Cl)cc2C(OCc2ccccc2)(C(F)(F)F)O1` (stereo not drawn) gave a 90% effect concentration (IC90) in experiment [1] of 17.9 nM.
Consider `C/C=C/COC1(C(F)(F)F)OC(=O)Nc2ccc(Cl)cc21` (stereo not drawn), for which the IC90 in experiment [1] amounted to 5.6 nM; in experiment [2] it was 404 nM.
Turning to `O=C1Nc2ccc(F)cc2C(C#Cc2ccoc2)(C(F)(F)F)O1` (stereo not drawn), the IC90 was 2.52 nM in experiment [1] and 369 nM in experiment [2].
For `O=C1Nc2ccc(F)c(F)c2C(C#Cc2cccs2)(C(F)(F)F)O1` (stereo not drawn), the 90% effect concentration (IC90) is 2.23 nM in experiment [1] and 156 nM in experiment [2].
`O=C1Nc2ccc(F)c(F)c2C(C#Cc2ccsc2)(C(F)(F)F)O1` (stereo not drawn): the IC90 in experiment [1] stood at 2.34 nM; in experiment [2], 139 nM.
For the molecule `CC#CCOC1(C(F)(F)F)OC(=O)Nc2ccc(Cl)cc21` (stereo not drawn), the 90% effect concentration (IC90) came out at 3.13 nM in experiment [1] and 310 nM in experiment [2].
The molecule `O=C1Nc2ccc(F)cc2C(C#Cc2ccco2)(C(F)(F)F)O1` (stereo not drawn) yielded a 90% effect concentration (IC90) in experiment [1] of 2.58 nM.
Still for that read-out and setting: as for `O=C1Nc2ccc(F)cc2C(C#Cc2cccs2)(C(F)(F)F)O1` (stereo not drawn), the figure is 2.93 nM.
`O=C1Nc2ccc(Cl)cc2C(OCCc2ccccc2)(C(F)(F)F)O1` (stereo not drawn) had an IC90 in experiment [1] of 167 nM.
Take `CCCCOC1(C(F)(F)F)OC(=O)Nc2ccc(Cl)cc21` (stereo not drawn): the IC90 is 10.2 nM in experiment [1] and 989 nM in experiment [2].
For `O=C1Nc2ccc(F)cc2C(C#Cc2ccsc2)(C(F)(F)F)O1` (stereo not drawn), the IC90 in experiment [1] is 2.55 nM; in experiment [2], 193 nM.
`O=C1Nc2ccc(Cl)cc2C(C#Cc2ccncc2)(C(F)(F)F)O1` (stereo not drawn): the 90% effect concentration (IC90) in experiment [1] is 102 nM.
With `O=C1Nc2ccc(Cl)cc2C(C#Cc2ccsc2)(C(F)(F)F)O1` (stereo not drawn), the concentration for an effect of 90% (IC90) in experiment [1] worked out at 4.47 nM; in experiment [2] it was 106 nM.
For `CC(C)=CCOC1(C(F)(F)F)OC(=O)Nc2ccc(F)c(F)c21` (stereo not drawn), in that order: 1.54 nM and 65 nM.
For `CC(C)=CCOC1(C(F)(F)F)OC(=O)Nc2ccc(Cl)cc21` (stereo not drawn), the IC90 in experiment [1] turned out to be 2.68 nM; in experiment [2], 83 nM.
Molecule `O=C1Nc2ccc(F)cc2C(C#Cc2ccccn2)(C(F)(F)F)O1` (stereo not drawn) registered an IC90 in experiment [1] of 12.2 nM.
`O=C1Nc2ccc(Cl)cc2C(C#Cc2ccoc2)(C(F)(F)F)O1` (stereo not drawn): the IC90 was found to be 3.8 nM in experiment [1] and 322 nM in experiment [2].
In the case of `CC(C)CCOC1(C(F)(F)F)OC(=O)Nc2ccc(Cl)cc21` (stereo not drawn), the 90% effect concentration (IC90) in experiment [1] stood at 10.1 nM; in experiment [2], 286 nM.
For the molecule `O=C1Nc2ccc(F)c(F)c2C(C#Cc2ccccn2)(C(F)(F)F)O1` (stereo not drawn), in experiment [1], the 90% effect concentration (IC90) came to 6.78 nM.
Regarding `C=CCOC1(C(F)(F)F)OC(=O)Nc2ccc(F)c(F)c21` (stereo not drawn), the IC90 in experiment [1] was determined as 6.47 nM; in experiment [2], 1620 nM.

The term IC90 denotes the concentration needed for an effect of 90%. Lower therefore signals an effect from little substance.
